The subject of the assay is BDF1 mice, P388 leukemia ip, median survival T/C. In words: NCI In Vivo Anticancer Drug Screen. Data for tumor model P388 Leukemia (intraperitoneal) in B6D2F1 (BDF1) mice. The note with it: endpoint: median survival time, higher = longer survival. Summed up:
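T/C = treated-group survival ÷ vehicle-control survival; tumour transplanted into mice before dosing.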

[1] abbreviates: dose: 25.0 mg/kg/injection, schedule: Q01DX009 (ip), vehicle: saline with Tween-80.
[2] abbreviates: dose: 50.0 mg/kg/injection, schedule: Q01DX009 (ip), vehicle: saline with Tween-80.
[3] abbreviates: dose: 100.0 mg/kg/injection, schedule: Q01DX009 (ip), vehicle: saline with Tween-80.
Where [4] appears, read: dose: 100.0 mg/kg/injection, schedule: Q04DX003 (ip), vehicle: Klucel (hydroxypropylcellulose) (HPC).
Where [5] appears, read: dose: 50.0 mg/kg/injection, schedule: Q01DX009 (ip), vehicle: Klucel (hydroxypropylcellulose) (HPC).
[6] abbreviates: dose: 50.0 mg/kg/injection, schedule: Q04DX003 (ip), vehicle: Klucel (hydroxypropylcellulose) (HPC).
The mark [7] stands for this setting: dose: 200.0 mg/kg/injection, schedule: Q04DX003 (ip), vehicle: Klucel (hydroxypropylcellulose) (HPC).
The mark [8] stands for this setting: dose: 100.0 mg/kg/injection, schedule: Q04DX003 (ip), vehicle: saline with Tween-80.
The mark [9] stands for this setting: dose: 200.0 mg/kg/injection, schedule: Q04DX003 (ip), vehicle: saline with Tween-80.
[10] abbreviates: dose: 400.0 mg/kg/injection, schedule: Q04DX003 (ip), vehicle: saline with Tween-80.
The mark [11] stands for this setting: dose: 50.0 mg/kg/injection, schedule: Q01DX009 (ip), vehicle: saline.
Where [12] appears, read: dose: 200.0 mg/kg/injection, schedule: Q01DX009 (ip), vehicle: saline with Tween-80.
[13] abbreviates: dose: 25.0 mg/kg/injection, schedule: Q01DX009 (ip), vehicle: saline.
Where [14] appears, read: dose: 0.25 mg/kg/injection, schedule: Q01DX009 (ip), vehicle: saline.
Setting [15] is: dose: 0.5 mg/kg/injection, schedule: Q01DX009 (ip), vehicle: saline.
Where [16] appears, read: dose: 1.0 mg/kg/injection, schedule: Q01DX009 (ip), vehicle: saline.

SMILES strings stand for the structures. Several values for one entry are separate records, joined by “and”; a condition that tells them apart may be missing. Identical values can stand only once. Toxic doses and inconclusive results are not listed.

Turning to `c1ccc(C2=NC(CCN3CCCCC3)(c3ccccc3)SC2CN2CCCCC2)cc1` (stereo not given), the T/C by setting is: (dose: 50.0 mg/kg/injection, schedule: Q01DX005 (ip), vehicle: Klucel (hydroxypropylcellulose) (HPC)) 101 % of control; (dose: 100.0 mg/kg/injection, schedule: Q01DX005 (ip), vehicle: Klucel (hydroxypropylcellulose) (HPC)) 105 % of control; (dose: 200.0 mg/kg/injection, schedule: Q01DX005 (ip), vehicle: Klucel (hydroxypropylcellulose) (HPC)) 104 % of control.

On to `CC1(C)CN(C(C)(C)C)CC(C)(C)C(=O)C1=O`, for which the T/C is, setting by setting: (dose: 12.5 mg/kg/injection, schedule: Q04DX003 (ip), vehicle: saline) 90 % of control; (dose: 25.0 mg/kg/injection, schedule: Q04DX003 (ip), vehicle: saline) 95 % of control; (dose: 50.0 mg/kg/injection, schedule: Q04DX003 (ip), vehicle: saline) 95 % of control.

As to `COc1ccc(-c2c[se]c(=S)s2)cc1`, the T/C is 99 % of control under setting [1], 94 % of control under setting [2] and 87 % of control under setting [3].

For the compound `COC(=O)c1cc(=O)n(-c2ccccc2F)c(SC)n1`, the T/C under setting [4] is 116 % of control.

As for `C[P+](c1ccc(F)cc1)(c1ccc(F)cc1)c1ccc(F)cc1`, the T/C is 86 % of control (dose: 12.5 mg/kg/injection, schedule: Q01DX009 (ip), vehicle: Klucel (hydroxypropylcellulose) (HPC)); 104 % of control (dose: 25.0 mg/kg/injection, schedule: Q01DX009 (ip), vehicle: Klucel (hydroxypropylcellulose) (HPC)); 104 % of control (dose: 25.0 mg/kg/injection, schedule: Q04DX003 (ip), vehicle: Klucel (hydroxypropylcellulose) (HPC)); 109 % of control under setting [5]; 90 % of control under setting [6].

With `O=C1CCC2(CCCC2)c2ccccc21`, the T/C by setting is: (dose: 25.0 mg/kg/injection, schedule: Q01DX009 (ip), vehicle: water) 95 % of control; (dose: 50.0 mg/kg/injection, schedule: Q01DX009 (ip), vehicle: water) 97 % of control; (dose: 100.0 mg/kg/injection, schedule: Q01DX009 (ip), vehicle: water) 106 % of control; (dose: 200.0 mg/kg/injection, schedule: Q01DX009 (ip), vehicle: water) 103 % of control; (dose: 400.0 mg/kg/injection, schedule: Q01DX009 (ip), vehicle: water) 106 % of control.

For `CCOC(=O)C1C(=O)C2CCc3c(ccc4ccccc34)N2C1=O` (stereo not given), the T/C runs as follows: under setting [5], 100 % of control; under setting [6], 95 % of control; (dose: 100.0 mg/kg/injection, schedule: Q01DX009 (ip), vehicle: Klucel (hydroxypropylcellulose) (HPC)) 110 % of control; under setting [4], 95 % of control; (dose: 200.0 mg/kg/injection, schedule: Q01DX009 (ip), vehicle: Klucel (hydroxypropylcellulose) (HPC)) 100 % of control; under setting [7], 100 % of control.

Consider `CCOC(=O)C1C(=O)C(C(=O)Nc2ccccc2)C(=O)C(C(=O)OCC)C1c1ccc(O)cc1` (stereo not given), for which the T/C under setting [8] is 110 % of control and 90 % of control; the T/C under setting [9] was 115 % of control; the T/C under setting [10] is 110 % of control and 100 % of control.

For `CCN(CC)C(=O)COc1cc2c(O)c3c(O)c(C)c4c(c13)C(=O)C(C)(OC=CC(OC)C(C)C(OC(C)=O)C(C)C(O)C(C)C(O)C(C)C=CC=C(C)C(=O)N2)O4` (stereo not given), the T/C is 109 % of control under setting [11]; 109 % of control (dose: 100.0 mg/kg/injection, schedule: Q01DX009 (ip), vehicle: saline); 123 % of control (dose: 200.0 mg/kg/injection, schedule: Q01DX009 (ip), vehicle: saline).

In the case of `CC1=CC(O)(C2(O)C=C(C)CC(C)(C)C2)CC(C)(C)C1` (stereo not given), the T/C is, setting by setting: (dose: 100.0 mg/kg/injection, schedule: Q01DX009 (ip), vehicle: other) 94 % of control; (dose: 200.0 mg/kg/injection, schedule: Q01DX009 (ip), vehicle: other) 108 % of control; (dose: 400.0 mg/kg/injection, schedule: Q01DX009 (ip), vehicle: other) 103 % of control.

With `OC(Cc1ccnc2ccccc12)C(Cl)(Cl)Cl` (stereo not given), the T/C was 100 % of control (dose: 50.0 mg/kg/injection, schedule: Q04DX003 (ip), vehicle: saline with Tween-80); 100 % of control under setting [3]; 105 % of control under setting [4]; 100 % of control under setting [8]; 100 % of control under setting [12]; 100 % of control under setting [7]. Besides, the T/C was 105 % of control under setting [9]; 100 % of control (dose: 400.0 mg/kg/injection, schedule: Q01DX009 (ip), vehicle: saline with Tween-80); 115 % of control (dose: 400.0 mg/kg/injection, schedule: Q04DX003 (ip), vehicle: Klucel (hydroxypropylcellulose) (HPC)).

On to `CCCCN(CCCC)P(=O)(N1CC1)N1CC1`, for which the T/C is, setting by setting: (dose: 16.5 mg/kg/injection, schedule: Q01DX009 (ip), vehicle: saline) 250 % of control; under setting [13], 118 % of control; (dose: 37.5 mg/kg/injection, schedule: Q01DX009 (ip), vehicle: saline) 113 % of control.

Regarding `Cn1nnnc1N/N=C(\Br)c1ccccc1`, the T/C under setting [1] was 110 % of control; the T/C under setting [2] is 105 % of control; the T/C under setting [3] was 120 % of control; the T/C under setting [8] is 104 % of control; the T/C under setting [12] was 120 % of control; the T/C under setting [9] was 95 % of control. The T/C under setting [10] was 90 % of control.

On to `CC1(C)N=C(N)N=C(N)N1c1ccccc1`, for which the T/C reads like this: (dose: 12.5 mg/kg/injection, schedule: Q01DX009 (ip), vehicle: saline) 118 % of control; under setting [13], 113 % of control; under setting [11], 118 % of control.

With `COC(=O)c1c2ccccc2cn1-c1ccccc1`, the T/C under setting [2] is 100 % of control, the T/C under setting [3] was 109 % of control and the T/C under setting [12] was 100 % of control.

In the case of `C=CCOc1c(C)cc(C(C)(C)c2cc(C)c(OCC=C)c(C)c2)cc1C`, the T/C (dose: 25.0 mg/kg/injection, schedule: Q01DX001 (ip), vehicle: other) is 104 % of control; the T/C (dose: 50.0 mg/kg/injection, schedule: Q01DX001 (ip), vehicle: other) is 109 % of control; the T/C (dose: 100.0 mg/kg/injection, schedule: Q01DX001 (ip), vehicle: other) was 95 % of control.

As for `O=C1C(N2CCN(CCO)CC2)=C(N2CC2)C(=O)C(N2CCN(CCO)CC2)=C1N1CC1`, the T/C runs as follows: under setting [14], 241 % of control; under setting [15], 241 % of control and 249 % of control; under setting [16], 243 % of control; (dose: 2.0 mg/kg/injection, schedule: Q01DX009 (ip), vehicle: saline) 116 % of control.

`CC1Cc2c(Cl)cc(C(=O)NC(Cc3ccccc3)C(=O)O)c(O)c2C(=O)O1` (stereo not given): the T/C under setting [14] was 98 % of control, the T/C under setting [15] was 116 % of control and the T/C under setting [16] was 115 % of control.

The values are drawn from PubChem BioAssay AID328 (DTP/NCI, 2004).
